# Assay results published in US7109354B2, “Thiophene amidines, compositions thereof, and methods of treating complement-mediated diseases and conditions” (3-Dimensional Pharmaceuticals, Inc., priority 2002, dated 2006).
# Several values for one entry are separate records, joined by “and”; a condition that tells them apart may be missing. Identical values can stand only once. Counter-ions that a name gives are not always drawn.
# Target: T1, Activated human C1s (Homo sapiens, UniProt P09871)
# T1 construct: purchased Calbiochem (La Jolla, Calif.)
# T1 sequence (P09871 438-688 limits assumed): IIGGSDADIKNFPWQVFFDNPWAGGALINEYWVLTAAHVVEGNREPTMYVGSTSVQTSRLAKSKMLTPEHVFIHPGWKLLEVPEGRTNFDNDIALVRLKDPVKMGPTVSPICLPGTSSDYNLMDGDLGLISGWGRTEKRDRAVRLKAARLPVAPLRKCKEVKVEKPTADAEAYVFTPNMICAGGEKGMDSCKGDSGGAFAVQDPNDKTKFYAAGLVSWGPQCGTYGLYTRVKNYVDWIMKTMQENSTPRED
# T1 sequence (P09871 16-437 partner limits assumed): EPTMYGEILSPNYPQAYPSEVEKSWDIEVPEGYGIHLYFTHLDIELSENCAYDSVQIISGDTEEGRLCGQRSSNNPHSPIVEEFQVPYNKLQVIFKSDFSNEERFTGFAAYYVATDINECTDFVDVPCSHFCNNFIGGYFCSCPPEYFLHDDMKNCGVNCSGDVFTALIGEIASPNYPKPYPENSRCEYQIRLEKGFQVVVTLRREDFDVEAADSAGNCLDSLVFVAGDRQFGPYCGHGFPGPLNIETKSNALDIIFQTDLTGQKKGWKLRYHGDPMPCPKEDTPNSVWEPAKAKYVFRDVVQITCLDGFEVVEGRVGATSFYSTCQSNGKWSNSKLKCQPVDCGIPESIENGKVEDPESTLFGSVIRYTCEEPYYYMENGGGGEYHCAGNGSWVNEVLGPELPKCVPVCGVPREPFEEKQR
# Experiment: In vitro inhibition of C1s (Ki determination, C1s-catalyzed hydrolysis of Z-Gly-Arg-S-Bzl, DTNB readout)
# Format: biochemical
# Details: substrate Z-Gly-Arg-S-Bzl 45 μM, DTNB 200 μM, C1s 2.3 nM, pH 7.5, 37° C., absorbance at 405 nm
# Protocol: Reagents: All buffer salts were obtained from Sigma Chemical Company (St. Louis, Mo.), and were of the highest purity available. DTNB was purchased from Pierce (Rockford, Ill.). Z-Gly-Arg-S-Bzl was purchased from Enzyme Systems Products (Livermore, Calif.). Activated human C1s was purchased from Calbiochem (La Jolla, Calif.).
# Test compounds are prepared as a 10 μM solution in DMSO. Dilutions are prepared in DMSO yielding 7 final concentrations encompassing a 700-fold concentration range.
# Reactions were initiated by the addition of a 10 μL aliquot of the enzyme, and the absorbance increase at 405 nm is continuously recorded for 15 minutes in a Molecular Devices plate reader. Final DMSO concentration was 4.3%. […] The ratio of the velocity (rate of change in absorbance as a function of time) for a sample containing no test compound is divided by the velocity of a sample containing test compound, and is plotted as a function of test compound concentration. The data are fit to a linear regression, and the value of the slope of the line calculated. The inverse of the slope is the experimentally determined Ki value.
row,Compound,Ki
1,"CSc1sc(C(=N)N)cc1S(=O)(=O)c1cccc(-c2cc(-c3ccccc3)ccc2O)c1 [Example 1, 4-(4′-Hydroxy-[1,1′;3′,1′]terphenyl-3′-sulfonyl)-5-methylsulfanyl-thiophene-2-carboxamidine trifluoroacetate]",6 to 23 nM
2,CSc1sc(C(=N)N)cc1S(=O)(=O)c1cccc(-c2cccc(-c3ccccc3)c2O)c1 [Example 2],6 to 23 nM
3,"CSc1sc(C(=N)N)cc1S(=O)(=O)c1cccc(-c2cccc(C(=O)OC(C)C)c2C)c1 [Example 3, 3′-(5-Carbamimidoyl-2-methylsulfanyl-thiophene-3-sulfonyl)-2-methyl-biphenyl-3-carboxylic acid isopropyl ester trifluoroacetate]",6 to 23 nM
4,"CSc1sc(C(=N)N)cc1S(=O)(=O)c1cccc(-c2c(C)cccc2C(=O)O)c1 [Example 4, 3′-(5-Carbamimidoyl-2-methylsulfanyl-thiophene-3-sulfonyl)-6-methyl-biphenyl-2-carboxylic acid trifluoroacetate]",6 to 23 nM
5,"CSc1sc(C(=N)N)cc1S(=O)(=O)c1cccc(-c2c(C)cccc2CO)c1 [Example 5, 4-(6′-Hydroxymethyl-2′-methyl-biphenyl-3-sulfonyl)-5-methylsulfanyl-thiophene-2-carboxamidine]",6 to 23 nM
6,"CSc1sc(C(=N)N)cc1S(=O)(=O)c1cccc(-c2cccc(C=O)c2C)c1 [Example 6, 4-(3′-formyl-2′-methyl-biphenyl-3-sulfonyl)-5-methylsulfanyl-thiophene-2-carboxamidine trifluoroacetate]",6 to 23 nM
7,"CSc1sc(C(=N)N)cc1S(=O)(=O)c1cccc(-c2cc(CO)ccc2C)c1 [Example 7, 4-(5′-Hydroxymethyl-2′-methyl-biphenyl-3-sulfonyl)-5-methylsulfanyl-thiophene-2-carboxamidine trifluoroacetate]",6 to 23 nM
8,"CSc1sc(C(=N)N)cc1S(=O)(=O)c1cccc(-c2cc(C=O)ccc2C)c1 [Example 8, 4-(5′-Formyl-2′-methyl-biphenyl-3-sulfonyl)-5-methylsulfanyl-thiophene-2-carboxamidine trifluoroacetate]",6 to 23 nM
9,"CSc1sc(C(=N)N)cc1S(=O)(=O)c1cccc(-c2cnccc2C)c1 [Example 9, 4-[3-(4-Methyl-pyridin-3-yl)-benzenesulfonyl]-5-methylsulfanyl-thiophene-2-carboxamidine trifluoroacetate]",6 to 23 nM
10,"CSc1sc(C(=N)N)cc1S(=O)(=O)c1cccc(-c2cccnc2Cl)c1 [Example 10, 4-[3-(2-Chloro-pyridin-3-yl)-benzenesulfonyl]-5-methylsulfanyl-thiophene-2-carboxamidine; bis-trifluoroacetate]",6 to 23 nM
11,"CSc1sc(C(=N)N)cc1S(=O)(=O)c1cccc(-c2ncccc2C)c1 [Example 11, 4-[3-(3-Methyl-pyridin-2-yl)-benzenesulfonyl]-5-methylsulfanyl-thiophene-2-carboxamidine bis-trifluoroacetate]",6 to 23 nM and 23 nM
12,"C=CCOc1cc(Br)cc(S(=O)(=O)c2cc(C(=N)N)sc2SC)c1 [Example 12, 4-(3-Allyloxy-5-bromo-benzenesulfonyl)-5-methylsulfanyl-thiophene-2-carboxamidine hydrochloride]",6 to 23 nM
13,"COc1cc(Br)cc(S(=O)(=O)c2cc(C(=N)N)sc2SC)c1 [Example 13, 4-(3-Bromo-5-methoxy-benzenesulfonyl)-5-methylsulfanyl-thiophene-2-carboxamidine hydrochloride]",6 to 23 nM
14,"COc1cc(-c2ccccc2)cc(S(=O)(=O)c2cc(C(=N)N)sc2SC)c1 [Example 15, 4-(5-Methoxy-biphenyl-3-sulfonyl)-5-methylsulfanyl-thiophene-2-carboxamidine hydrochloride]",6 to 23 nM
15,"C=CCOc1cc(-c2ccccc2)cc(S(=O)(=O)c2cc(C(=N)N)sc2SC)c1 [Example 16, 4-(5-Allyloxy-biphenyl-3-sulfonyl)-5-methylsulfanyl-thiophene-2-carboxamidine]",6 to 23 nM
16,"CSc1sc(C(=N)N)cc1S(=O)(=O)c1cc(OCc2ccccc2)cc(-c2ccccc2)c1 [Example 17, 4-(5-Benzyloxy-biphenyl-3-sulfonyl)-5-methylsulfanyl-thiophene-2-carboxamidine hydrochloride]",6 to 23 nM

row,Compound,Ki
1,"CSc1sc(C(=N)N)cc1S(=O)(=O)c1cc(O)cc(-c2ccccc2Cl)c1 [Example 18, 4-(2′-Chloro-5-hydroxy-biphenyl-3-sulfonyl)-5-methylsulfanyl-thiophene-2-carboxamidine trifluoroacetate]",6 to 23 nM
2,"COc1cc(-c2ccccc2Cl)cc(S(=O)(=O)c2cc(C(=N)N)sc2SC)c1 [Example 19, 4-(2′-Chloro-5-methoxy-biphenyl-3-sulfonyl)-5-methylsulfanyl-thiophene-2-carboxamidine trifluoroacetate]",6 to 23 nM
3,"N=C(N)c1cc(S(=O)(=O)c2cccc(-c3cccc(C=O)c3)c2)c(Br)s1 [Example 20, 5-Bromo-4-(3′-formyl-biphenyl-3-sulfonyl)-thiophene-2-carboxamidine trifluoroacetate]",6 to 23 nM
4,"Cc1ccccc1-c1cccc(S(=O)(=O)c2cc(C(=N)N)sc2Br)c1 [Example 24, 5-Bromo-4-(2′-methyl-biphenyl-3-sulfonyl)-thiophene-2-carboxamidine trifluoroacetate]",6 to 23 nM
5,"CSc1sc(C(=N)N)cc1S(=O)(=O)c1cccc(-c2c(C)cccc2N)c1 [Example 25, 4-(2′-Amino-6′-methyl-biphenyl-3-sulfonyl)-5-methylsulfanyl-thiophene-2-carboxamidine trifluoroacetate]",6 to 23 nM
6,"CSc1sc(C(=N)N)cc1S(=O)(=O)c1cccc(-c2ccc(O)c(C=O)c2)c1 [Example 26, 4-(3′-Formyl-4′-hydroxy-biphenyl-3-sulfonyl)-5-methylsulfanyl-thiophene-2-carboxamidine trifluoroacetate]",6 to 23 nM
7,"CSc1sc(C(=N)N)cc1S(=O)(=O)c1cccc(-c2cccc(C(O)C(F)(F)F)c2)c1 (stereo not shown) [Example 28, 5-Methylsulfanyl-4-[3′-(2,2,2-trifluoro-1-hydroxy-ethyl)-biphenyl-3-sulfonyl]-thiophene-2-carboxamidine trifluoroacetate]",6 to 23 nM
8,"CSc1sc(C(=N)N)cc1S(=O)(=O)c1cccc(-c2cccc(C(=O)C(F)(F)F)c2)c1 [Example 29, 5-Methylsulfanyl-4-[3′-(2,2,2-trifluoro-acetyl)-biphenyl-3-sulfonyl]-thiophene-2-carboxamidine trifluoroacetate]",6 to 23 nM
9,"CSc1sc(C(=N)N)cc1S(=O)(=O)c1cccc(-c2cc3[nH]cnc3cc2C)c1 [Example 30, 4-[3-(6-Methyl-3H-benzoimidazol-5-yl)-benzenesulfonyl]-5-methylsulfanyl-thiophene-2-carboxamidine bis-trifluoroacetate]",6 to 23 nM
10,"CSc1sc(C(=N)N)cc1S(=O)(=O)c1cccc(-c2ccccc2C(C)O)c1 (stereo not shown) [Example 32, 4-[2′-(1-Hydroxy-ethyl)-biphenyl-3-sulfonyl]-5-methylsulfanyl-thiophene-2-carboxamidine trifluoroacetate]",6 to 23 nM
11,"CSc1sc(C(=N)N)cc1S(=O)(=O)c1cccc(-c2ccc(C(C)O)cc2)c1 (stereo not shown) [Example 33, 4-[4′-(1-Hydroxy-ethyl)-biphenyl-3-sulfonyl]-5-methylsulfanyl-thiophene-2-carboxamidine Trifluoroacetate]",6 to 23 nM
12,"CSc1sc(C(=N)N)cc1S(=O)(=O)c1cccc(-c2ccccc2O)c1 [Example 34, 4-(2′-Hydroxy-biphenyl-3-sulfonyl)-5-methylsulfanyl-thiophene-2-carboxamidine trifluoroacetate]",6 to 23 nM
13,"CSc1sc(C(=N)N)cc1S(=O)(=O)c1cccc(-c2cccc(O)c2)c1 [Example 35, 4-(3′-Hydroxy-biphenyl-3-sulfonyl)-5-methylsulfanyl-thiophene-2-carboxamidine trifluoroacetate]",6 to 23 nM
14,"CSc1sc(C(=N)N)cc1S(=O)(=O)c1ccc2ccccc2c1 [Example 37, 5-Methylsulfanyl-4-(naphthalene-2-sulfonyl)-thiophene-2-carboxamidine triflouroacetate]",6 to 23 nM
15,"COc1ccc(-c2cccc(S(=O)(=O)c3cc(C(=N)N)sc3SC)c2)c(OC)c1 [Example 41, 4-(2′,4′-Dimethoxy-biphenyl-3-sulfonyl)-5-methylsulfanyl-thiophene-2-carboxamidine]",6 to 23 nM
